How the values were obtained:
[1] = system: human neutrophils; experiment: Extracellular superoxide anion production in stimulated neutrophils (ferricytochrome c reduction); assay type: cell-based
Experimental: Extracellular superoxide anion production in activated neutrophils was assessed through the reduction of ferricytochrome c. After incubating them with Ca^2+ (1 mM) and ferricytochrome c (0.5 mg/mL) at 37° C., the isolated human neutrophils (6×10^5 cells/mL) were then incubated with 0.1% DMSO or 0.3-10 μM bletinib for 5 min. The cells were pretreated with cytochalasin B (CB, 1 or 2 μg/mL) for 3 min and stimulated with fMLF, MMK-1, or sodium fluoride (NaF), or directly activated with phorbol-12-myristate-13-acetate (PMA). The change in absorbance at 550 nm was detected continuously using a spectrophotometer (U-3010, Hitachi, Tokyo, Japan), and superoxide anion levels were calculated using a method described previously (Hwang et al., 2003 Mol. Pharmacol. 64(6), 1419-1427).

[2] = system: human neutrophils; experiment: Cytotoxicity assessed using LDH release; assay type: cell-based
Experimental: FIG. 1 Bletinib suppressed superoxide anion production in stimulated human neutrophils. Neutrophils (6×10^5 cells/mL) were incubated with 0.1% DMSO or […] bletinib for 5 min before activation with stimuli. Superoxide anion production was induced by (A) fMLF, (B) MMK-1, (C) NaF, or (D) PMA and then measured using ferricytochrome c reduction method. (E) Cytotoxicity was assessed using LDH release. (F) Superoxide scavenging capacity of bletinib was assessed in a xanthine/xanthine oxidase cell-free system. WST-1 reduction was measured through spectrophotometry at 450 nm, with 20 U/mL superoxide dismutase as the positive control.

[3] = system: human neutrophils; experiment: NET formation, quantification of extracellular DNA with Sytox green; assay type: cell-based; settings: 10 nM PMA; 1-10 μM bletinib
Experimental: Human neutrophils (10^6 cells/mL) resuspended in HBSS with 2.5 μM Sytox green were incubated with DMSO or bletinib for 10 min and stimulated using 10 nM PMA or 10 μg/mL LPS for 3 h. The fluorescence intensity was quantified on a Tecan Infinite 200 reader at 485-535 nm.

[4] = system: p-ERK; experiment: Immunoblotting of neutrophil lysates, ERK phosphorylation; assay type: cell-based, human; settings: 10 μM bletinib; 0.1 μM fMLF
Experimental: (§1) Neutrophils incubated with bletinib or DMSO at 37° C. for 5 min were stimulated with 0.1 μM fMLF for 30 s. The proteins were separated from neutrophil lysates through electrophoresis (12% sodium dodecyl sulphate-polyacrylamide gel electrophoresis) and then transferred to nitrocellulose membranes. The target proteins were identified through immunoblotting with specific antibodies against p38, p-p38, Akt, p-Akt S473, ERK, p-ERK, INK, p-JNK, Src, p-SFKs Y416, p-Src Y416, Lyn, p-Lyn (Y396), Fgr, p-Fgr (Y412), Hck, p-Hck (Y410), Btk, p-Btk Y223, Vav, and p-Vav (Y174) as well as with HRP-conjugated secondary anti-rabbit antibody (Cell Signaling Technology). The signal intensity was detected and quantified using the UVP BioSpectrum Imaging System (Analytik Jena, USA).

[5] = system: Fgr (Y412); experiment: Immunoblotting of neutrophil lysates, Fgr phosphorylation; assay type: cell-based, human; settings: 0.1 μM fMLF-stimulated neutrophils
Experimental: as §1

[6] = system: Btk (Y223); experiment: Immunoblotting of neutrophil lysates, Btk phosphorylation; assay type: cell-based, human; settings: 0.1 μM fMLF-stimulated neutrophils
Experimental: as §1

[7] = molecular target: Hck (Homo sapiens, UniProt P08631); experiment: Cell-free ADP-Glo kinase assay, Hck; assay type: biochemical; settings: 1-10 μM bletinib or 0.1-3 μM PP2; 125 μM ATP; concentration-dependent
Sequence of Hck (P08631 whole entry): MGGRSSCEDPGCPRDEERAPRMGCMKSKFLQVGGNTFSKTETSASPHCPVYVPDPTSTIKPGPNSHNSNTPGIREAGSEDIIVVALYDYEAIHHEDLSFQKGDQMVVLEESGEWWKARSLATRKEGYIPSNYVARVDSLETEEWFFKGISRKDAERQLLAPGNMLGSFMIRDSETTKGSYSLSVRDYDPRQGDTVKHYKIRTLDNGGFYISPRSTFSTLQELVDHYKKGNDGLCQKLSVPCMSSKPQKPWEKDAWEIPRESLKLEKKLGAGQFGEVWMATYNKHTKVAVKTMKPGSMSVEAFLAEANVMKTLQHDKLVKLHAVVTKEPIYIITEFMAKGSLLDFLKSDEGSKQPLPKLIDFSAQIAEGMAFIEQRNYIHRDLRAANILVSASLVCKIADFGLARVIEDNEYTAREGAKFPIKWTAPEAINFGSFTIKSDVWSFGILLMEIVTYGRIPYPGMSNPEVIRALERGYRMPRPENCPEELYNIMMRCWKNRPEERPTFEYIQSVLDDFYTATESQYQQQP
Experimental: The kinase activity of SFKs was assessed using an ADP-Glo kinase assay kit (Promega, Fitchburg, USA) according to manufacturer instructions. […] The ADP-Glo reagent was used to end the kinase reaction and remove the remnant ATP; next, the kinase, which converted ADP to ATP, detection reagent was added and incubated for 30 min. Luciferin/luciferase luminescence was determined on an Infinite 200 Pro (Tecan, Switzerland).

[8] = system: human neutrophils; experiment: Neutrophil migration, microchemotaxis chamber; assay type: cell-based
Experimental: A microchemotaxis chamber with 3-μm filters (Millipore) was used to evaluate chemotactic migration of neutrophils. Neutrophils (5×10^6 cells/mL) treated with bletinib or DMSO for 5 min were placed in the top chamber, and 0.1 μM fMLF was added into the bottom chamber. The number of neutrophils that migrated from the top to the bottom chamber after incubation at 5% CO2 for 1 h was counted on a MoxiZ automatic cell counter (ORFLO).

[9] = system: BALB/c mice; experiment: LPS-induced ALI model in mice; assay type: in vivo; settings: 25 mg/kg intraperitoneal
Experimental: A total of 24 male BALB/c mice were randomly divided into four groups (6 mice/group): vehicle alone, bletinib alone, LPS control, and bletinib treatment (bletinib+LPS). The mice were starved overnight and then intraperitoneally injected with 50 μL of bletinib (25 mg/kg) or 50 μL of vehicle (10% DMSO). ALI was induced through intratracheal spraying of 50 μL of LPS (from Escherichia coli O111:B4; 2 mg/kg) or 50 μL of 0.9% saline (in vehicle and bletinib alone group) under general anaesthesia with xylazine (6 mg/kg) and Zoletil 50 (30 mg/kg). Five hours later, mouse lungs were harvested after sacrifice and were frozen for myeloperoxidase (MPO) activity assay; they were also fixed with 10% formalin for histological sectioning and immunofluorescence staining.
The harvested lung tissues were washed with phosphate-buffered saline (PBS) and fixed with 10% formalin for 24 h. The samples were subsequently dehydrated, embedded with paraffin, sliced into 3-μm-thick sections with a microtome, and placed on glass slides. These sections were stained using haematoxylin and eosin (H&E) and corresponding antibodies. Then, images were acquired through light microscopy.
For immunofluorescence staining, tissue sections were incubated with antibodies against H3 (citH3; citrulline R2+R8+R17) and Ly6G at dilutions of 1:800 and 1:200, respectively. Anti-IgG secondary antibodies labelled with a fluorescent dye (Alexa Fluor 488 for citH3 or Alexa Fluor 568 for Ly6G) were used at dilutions of 1:1000 and 1:500, respectively. Immunofluorescence images were acquired through confocal microscopy (LSM 510 Meta, Zeiss).
The mouse lung tissues were suspended in a 0.5% hexadecyltrimethylammonium bromide buffer (pH 6.0) and then homogenised through sonication. To evaluate MPO activity, the MPO substrate buffer (containing PBS, 0.0005% hydrogen peroxide, and 0.2 mg/mL 0-dianisidine hydrochloride) was added to the homogenised tissue, and the light absorbance at 460 nm was detected by spectrophotometry, after which, MPO activity was calculated with reference to the standard curve of human MPO activity.

SMILES: COc1cc(O)cc(CCc2c(Cc3ccc(O)cc3)ccc(O)c2Cc2ccc(O)cc2)c1 [bletinib, 3,3′-dihydroxy-2′,6′-bis(p-hydroxybenzyl)-5-methoxybibenzyl]
- IC50 ([1]; Homo sapiens, Neutrophil, fMLF stimulation, bletinib preincubated 5 min, read-out: superoxide anion produced by fMLF-activated human neutrophils, IC50): 0.62 µM
- superoxide anion release from neutrophils stimulated by MMK-1 ([1]; MMK-1 stimulation): attenuated
- superoxide anion release from neutrophils stimulated by sodium fluoride (NaF) ([1]; NaF stimulation): attenuated
- superoxide anion release from neutrophils stimulated by PMA ([1]; PMA stimulation): attenuated
- cytotoxicity (LDH release) [2]: did not exhibit cytotoxicity
- NET formation induced by PMA, fluorescent spectrometry (Sytox green) [3]: significantly mitigated
- phosphorylation of ERK [4]: significantly inhibited
- phosphorylation of Fgr (Y412) [5]: significantly inhibited
- phosphorylation of Btk (Y223) [6]: significantly inhibited
- kinase activity of Hck [7]: inhibited
- fMLF-induced transwell migration of neutrophils ([8]; 1-10 μM bletinib, 0.1 μM fMLF): significantly reduced
- IL-8-induced neutrophil migration ([8]; IL-8, data not shown): inhibited
- MPO activity in the mouse lung tissues ([9]; 5 h after LPS spraying): significantly ameliorated
- total protein levels in the mouse lung tissues ([9]; 5 h after LPS spraying): significantly ameliorated
- LPS-activated phosphorylation of Vav (p-Vav) in lung sections ([9]; intratracheal LPS for 5 h): attenuated
- LPS-induced NET formation (Ly6G+citH3+ cell accumulation) in lung ([9]; intratracheal LPS for 5 h): considerably reduced
- distortion of the pulmonary architecture (lung histology) ([9]; intratracheal LPS for 5 h): significantly suppressed

Source: patent publication US20220339122A1, “METHODS FOR THE TREATMENT OF DISEASES ASSOCIATED WITH DYSREGULATED ACTIVATION AND RECRUITMENT OF NEUTROPHILS” (Chang Gung University, priority 2021, published 2022)
